The text below walks through data of US5616732A, “Intermediates for difluoroprostacyclins and methods for their production” (Asahi Glass Company Ltd., priority 1994, dated 1997).

Values after ≈ are worked out from the molar mass of the structure shown. Where two headings read alike, the source gives them in different places.

The conditions of data set [1]: cited from earlier work.
The next data set has as its system human platelets. In words: Platelet aggregation inhibitory activities in vitro (ADP-induced, human platelet-rich plasma). It is filed as cell-based. The conditions noted are these: for IC50: Homo sapiens, Platelet, ADP final concentration 4 μM, 37° C.; for platelet aggregation inhibitory activities (in words): compared with natural type prostacyclin or other compounds. As for the experimental part: Platelet aggregation inhibitory activities of test compounds in vitro were measured by using human platelets.
Into a plastic container containing one volume of a 3.8% sodium citrate solution, 9 volumes of blood of a healthy person was collected, and the container was gently turned over for admixing. The mixture was centrifugally separated at 1,000 rpm for 10 minutes at room temperature, whereupon the supernatant was taken as a platelet-rich plasma (PRP). The lower layer was further centrifugally separated at 3,000 rpm for 15 minutes at room temperature, whereupon the supernatant was taken as a platelet-poor plasma (PPP). PRP was diluted with PPP so that the number of platelets became about 30×10^4 /μl. An aggregometer was calibrated, and then 200 μl of PRP thus prepared was heated at 37° C. for one minute. Then, 25 μl of a solution obtained by diluting a test compound with a physiological sodium chloride solution, was added thereto, and the mixture was heated at 37° C. for one minute. Then, […] of an adenosine-5'-1.5 sodium diphosphate (ADP, Sigma) solution was added thereto so that the final concentration would be 4 μM, whereby the change in transmittance was recorded by the aggregometer. The transmittance was measured with respect to the solution immediately after dissolving the test compound in the physiological sodium chloride solution and the solution after leaving it at 25° C. for 24 hours. The solution of the test compound was dissolved in a physiological sodium chloride solution and then used by diluting it with a physiological sodium chloride solution.
Aggregation inhibition (%)=(1-T/T0)×100
T0 : Transmittance in the case where the physiological sodium chloride solution was added.
T: Transmittance in the case where the test compound was added.

A short description of data set [2]: Stability test in an aqueous solution. In kind it is physicochemical. The note with it: for half-life / remaining at 168 h / remaining at 480 h: physiological saline, 25° C., 10 μg/ml in physiological sodium chloride solution; for remaining at 168 h: 7 days, read-out: Remaining ratio 7 days; for remaining at 480 h: 20 days, read-out: Remaining ratio 20 days. As for the experimental part:
A test compound was dissolved in ethanol to a concentration of 1 mg/ml. Then, it was diluted with a physiological sodium chloride solution to obtain a solution having a concentration of 10 μg/ml. The solution was stored at 25° C., and the remaining ratio of the test compound was measured as time passed. The remaining ratio was quantitatively analyzed by an internal standard (methyl benzoate) method using high performance liquid chromatography (Shimadzu LC9A, SPC-6AU; Milipore 805-DS). The column used was YMC AM312 (ODS), and the eluent used was a solvent mixture of acetonitrile and a 1% triethylamine-phosphoric acid buffer solution (pH6.3).

Setting [3] is: solution immediately after dissolving, read-out: IC50 Immediately after preparation.
Setting [4] is: solution left at 25° C. for 24 hours, read-out: IC50 24 hours later.

For orientation: half-life means how long it takes for the measured level to halve. For `CCCCC[C@H](O)C#C[C@@H]1[C@H]2C/C(=C/CCCC(=O)O)O[C@H]2C(F)(F)[C@H]1O` [10,10-difluoro-13,14-dehydroprostacyclin], the half-life entry in data set [1] (reported in literature) is “about 24 hours”.

Regarding `CCCC[C@H](C)C[C@H](O)/C=C/[C@@H]1[C@@H]2[C@H](C[C@H]1O)O/C(=C\CCCC(=O)O)C2(F)F` [Compound 11, sodium 5-[(1S,5R,6R,7R)-2-oxa-4,4-difluoro-7-hydroxy-6-{(3S,5S)-3-hydroxy-5-methyl-E-1-nonenyl}bicyclo[3.3.0]octan-3-ylidene]pentanoate], in the data set with human platelets (setting [3]), the IC50 turned out to be 0.0086 µg/mL. Besides, in the data set with human platelets (setting [4]), the IC50 worked out at 0.0078 µg/mL. For the same compound, in the data set on human platelets, the “platelet aggregation inhibitory activities (in words)” value is given as “activities close to natural type prostacyclin”. In data set [2], the half-life is more than 90 days, the remaining at 168 h was 102% and the remaining at 480 h turned out to be 96.8%.

Take `O=C(O)CCC/C=C1\O[C@H]2C[C@@H](O)[C@H](/C=C/[C@@H](O)C3CCCC3)[C@H]2C1(F)F` [Compound 13, sodium 5-[(1S,5R,6R,7R)-2-oxa-4,4-difluoro-7-hydroxy-6-{(3S)-3-cyclopentyl-3-hydroxy-E-1-propenyl}bicylco[3.3.0]octan-3-ylidene]pentanoate]: in the data set with human platelets (setting [3]), the IC50 was determined as 0.0663 µg/mL. Moreover, in the data set with human platelets (setting [4]), the IC50 was 0.0629 µg/mL. In addition, in data set [2], the half-life was more than 90 days, the remaining at 168 h is 100% and the remaining at 480 h was found to be 98%.

As to `CCC#CCC(C)[C@H](O)/C=C/[C@@H]1[C@@H]2[C@H](C[C@H]1O)O/C(=C\CCCC(=O)O)C2(F)F` (stereo partly drawn) [Compound 15, sodium 5-[(1S,5R,6R,7R)-2-oxa-4,4-difluoro-7-hydroxy-6-{(3S,4RS)-3-hydroxy-4-methyl-E-1-nonen-6-ynyl}bicyclo-[3.3.0]octan-3-ylidene]pentanoate], in the data set with human platelets (setting [3]), the IC50 turned out to be 0.00079 µg/mL. For the same compound, in the data set on human platelets (setting [4]), the IC50 was 0.00078 µg/mL. For the same compound, the “platelet aggregation inhibitory activities (in words)” value in the data set on human platelets is “even higher activities than natural type prostacyclin”. Further, in data set [2], the half-life is more than 90 days, the remaining at 168 h was 98.9% and the remaining at 480 h was 97.8%.

Turning to `CCC#CC[C@H](C)[C@H](O)/C=C/[C@@H]1[C@@H]2[C@H](C[C@H]1O)O/C(=C\CCCC(=O)O)C2(F)F` [Compound 17, sodium 5-[(1S,5R,6R,7R)-2-oxa-4,4-difluoro-7-hydroxy-6-{(3S,4S)-3-hydroxy-4-methyl-E-1-nonen-6-ynyl}bicyclo[3.3.0]octan-3-ylidene]pentanoate], the IC50 in the data set with human platelets (setting [3]) is 0.00038 µg/mL. Moreover, in the data set on human platelets (setting [4]), the IC50 was found to be 0.00039 µg/mL. The “platelet aggregation inhibitory activities (in words)” value in the data set on human platelets is on record as “even higher activities than natural type prostacyclin”. For the same compound, in data set [2], the half-life was more than 90 days, the remaining at 168 h came out at 102% and the remaining at 480 h was 100%.

`CCCCC[C@H](O)/C=C/[C@@H]1[C@@H]2[C@H](C[C@H]1O)O/C(=C\CCCC(=O)O)C2(F)F` [Compound 19, sodium 5-[(1S,5R,6R,7R)-2-oxa-4,4-difluoro-7-hydroxy-6-{(3S)-3-hydroxy-E-1-octenyl}bicyclo[3.3.0]octan-3-ylidene]pentanoate]: the IC50 with human platelets (setting [3]) came out at 0.0561 µg/mL. For the same compound, the IC50 in the data set on human platelets (setting [4]) was found to be 0.0604 µg/mL. In data set [2], the half-life was more than 90 days, the remaining at 168 h was found to be 99.3% and the remaining at 480 h was 97.2%.

For the compound `Cc1cccc(C[C@H](O)/C=C/[C@@H]2[C@@H]3[C@H](C[C@H]2O)O/C(=C\CCCC(=O)O)C3(F)F)c1` [Compound 21, sodium 5-[(1S,5R,6R,7R)-2-oxa-4,4-difluoro-7-hydroxy-6-{(3S)-3-hydroxy-4-(3-methylphenyl)-E-1-butenyl}bicyclo[3.3.0]octan-3-ylidene]pentanoate], in the data set with human platelets (setting [3]), the IC50 came out at 0.0087 µg/mL. The IC50 in the data set with human platelets (setting [4]) turned out to be 0.0089 µg/mL. Besides, in data set [2], the half-life was more than 90 days, the remaining at 168 h was 101% and the remaining at 480 h stood at 100%.

As for `CCCC[C@H](C)C[C@@H](O)/C=C/[C@@H]1[C@@H]2[C@H](C[C@H]1O)O/C(=C\CCCC(=O)O)C2(F)F` [Compound 23], the IC50 in the data set on human platelets (setting [3]) was 0.059 µg/mL (≈ 0.142 µM). The IC50 in the data set with human platelets (setting [4]) was 0.0582 µg/mL (≈ 0.14 µM). In data set [2], the half-life was more than 90 days, the remaining at 168 h turned out to be 100% and the remaining at 480 h was 100%.

In the case of `CCC#CCC(C)[C@@H](O)/C=C/[C@@H]1[C@@H]2[C@H](C[C@H]1O)O/C(=C\CCCC(=O)O)C2(F)F` (stereo partly drawn) [Compound 25, sodium 5-[(1S,5R,6R,7R)-2-oxa-4,4-difluoro-7-hydroxy-6-{(3R,4RS)-3-hydroxy-4-methyl-E-1-none-6-ynyl}bicyclo[3.3.0]octan-3-ylidene]pentanoate], the IC50 in the data set on human platelets (setting [3]) was 0.027 µg/mL. In the data set on human platelets (setting [4]), the IC50 worked out at 0.0281 µg/mL. Moreover, in data set [2], the half-life was more than 90 days, the remaining at 168 h is 101% and the remaining at 480 h worked out at 99.8%.

Consider `CCC#CC[C@H](C)[C@@H](O)/C=C/[C@@H]1[C@@H]2[C@H](C[C@H]1O)O/C(=C\CCCC(=O)O)C2(F)F` [Compound 27], for which the IC50 with human platelets (setting [3]) turned out to be 0.0084 µg/mL (≈ 0.0204 µM). Moreover, the IC50 in the data set with human platelets (setting [4]) was 0.008 µg/mL (≈ 0.0194 µM). Also, the “platelet aggregation inhibitory activities (in words)” value in the data set on human platelets was “activities close to natural type prostacyclin”. Besides, in data set [2], the half-life is more than 90 days, the remaining at 168 h was 99.5% and the remaining at 480 h was 100%.

With `Cc1cccc(C[C@@H](O)/C=C/[C@@H]2[C@@H]3[C@H](C[C@H]2O)O/C(=C\CCCC(=O)O)C3(F)F)c1` [Compound 29, sodium 5-[(1S,5R,6R,7R)-2-oxa-4,4-difluoro-7-hydroxy-6-{(3R)-3-hydroxy-4-(3-methylphenyl)-E-1-butenyl}bicyclo[3.3.0]octan-3-ylidene]pentanoate], in the data set with human platelets (setting [3]), the IC50 was more than 0.2 µg/mL. Besides, in the data set with human platelets (setting [4]), the IC50 was more than 0.2 µg/mL. In addition, in data set [2], the half-life is more than 90 days, the remaining at 168 h turned out to be 99.1% and the remaining at 480 h turned out to be 99.3%.

On to `CCCCC[C@H](O)C#C[C@@H]1[C@@H]2[C@H](C[C@H]1O)O/C(=C\CCCC(=O)O)C2(F)F` [Compound 31, sodium 5-[(1S,5R,6R,7R)-2-oxa-4,4-difluoro-7-hydroxy-6-{(3S)-3-hydroxy-1-octynyl}bicyclo[3.3.0]octan-3-ylidene]pentanoate, reference compound], for which the IC50 in the data set with human platelets (setting [3]) is 0.0737 µg/mL. For the same compound, in the data set on human platelets (setting [4]), the IC50 came to 0.0758 µg/mL. Besides, the “platelet aggregation inhibitory activities (in words)” value in the data set with human platelets is “low activities as compared with other compounds”. The “physiological activities (in words)” value in the data set on human platelets (stated generally as physiological activities) is “physiological activities are inadequate and substantially lower than natural type prostacyclin”. Also, in data set [2], the “chemical stability (in words)” value was “chemical stability substantially equal to other compounds”, the half-life is more than 90 days, the remaining at 168 h amounted to 99.5% and the remaining at 480 h amounted to 97%.

On to `CCCCC[C@H](O)/C=C/[C@@H]1[C@H]2C/C(=C/CCCC(=O)O)O[C@H]2C[C@H]1O` [PGI2 Na, reference compound], for which the figures for the IC50 in the data set on human platelets (setting [3]) and in the data set on human platelets (setting [4]) were 0.0021 µg/mL (≈ 0.00596 µM) and more than 0.2 µg/mL, respectively.

For the compound `CCCCC[C@H](O)/C=C/[C@@H]1[C@H]2C/C(=C/CCCC(=O)O)O[C@H]2C[C@H]1O` [natural type prostacyclin], in data set [1] (as mentioned above, conditions not restated), the half-life entry is “about 10 minutes”. In addition, the “half-life in an aqueous solution” value in data set [1] (pH7.48 at 25° C.) is 0.00729 days.
